Test results from patent US9670204B2, “Compounds and pharmaceutical compositions thereof for the treatment of inflammatory disorders” (Galapagos NV, priority 2013, dated 2017).

Tests used:
[1] = tested on: LPA 18:2 in rat plasma; assay: Rat whole blood (plasma) LPA assay; format: biochemical; details: 2 h at 37 C, LPA 18:2 by LC-MS/MS
In short: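 Heparinised rat plasma spiked with compound (1% DMSO final), incubated 2 h at 37 °C, 5% CO2 with shaking; controls kept at −20 °C. After methanol precipitation with LPA 17:0 internal standard, LPA 18:2 measured by LC-MS/MS (C18, isocratic), relative quantities from peak area without calibration.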

[2] = tested on: LPA 18:2 in human plasma; assay: Human whole blood (plasma) LPA assay; format: biochemical; details: 2 h at 37 C, LPA 18:2 by LC-MS/MS
Method: Blood is collected from healthy volunteers who gave informed consent into sodium heparin tubes by venipuncture, then gently inverted several times to prevent clotting. Tubes are centrifuged at 3000 rpm for 15 min at 4° C. then plasma is stored at −80° C. Compounds are diluted in DMSO in concentration dependent manner then 0.5 μL are dispensed into 96-well plate placed in ice. Plasma is defrosted on ice then 49.5 μL of plasma are added into the well containing 0.5 μL of compound (1% DMSO final). Plates are covered with a lid in polypropylene and incubated at +37° C., 5% CO2, for 2 h under gentle shaking (except controls which are stored at −20° C.).
At the end of the incubation, controls are defrosted in ice and transferred in the incubated plates for LC-MS/MS analysis with a non GLP-validated method. For the analysis, plasma proteins from a 10 μL incubated plates are precipitated with an excess of methanol containing the internal standard, LPA 17:0. After centrifugation, the corresponding supernatant is injected on a C18 column. Analytes are eluted out of the column under isocratic conditions. An API5500 QTRAP mass spectrometer (ABSciex™) is used for the detection of LPA 18:2. No calibration curve is prepared for LPA 18:2, however relative quantities are evaluated based on the peak area.

[3] = target: T1, hENPP2 (UniProtKB/SwissProt Q13822) (Homo sapiens (Human), UniProt Q13822); assay: fluorescent hENPP2 biochemical assay, FS-3 as substrate; details: read-out: FS3-IC50
In short: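 hENPP2 in 50 mM Tris-HCl pH 8.0, 250 mM NaCl, 5 mM KCl, 1 mM MgCl2, 1 mM CaCl2, 0.1% fatty-acid-free BSA, preincubated with compound 30 min at room temperature. The 0.75 μM FS-3 solution was added and the mixture incubated 30 min at 30° C. Fluorescence (ex 485/em 520 nm) gives IC50.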

[4] = target: T1, hENPP2; assay: hENPP2 biochemical assay, LPC as substrate; details: LPC (palmitoyl 16:0) as substrate
In short: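 Human ENPP2 in 50 mM Tris-HCl pH 8.5, 500 mM NaCl, 5 mM KCl, 10 mM CaCl2, 0.1% fatty-acid-free BSA, reacted 30 min at 37 °C with LPC 16:0 (150 µM solution added 1:1). Released choline measured via choline oxidase/peroxidase/TOOS/4-aminoantipyrine quinoneimine dye at 555 nm; IC50 reported.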

## CCc1nc2c(F)cc(N3CCN(CC(=O)NC)CC3)cn2c1N(C)c1nc(-c2ccc(F)cc2)c(C#N)s1 [Compound 13, 2-(4-(3-((5-cyano-4-(4-fluorophenyl)thiazol-2-yl)(methyl)amino)-2-ethyl-8-fluoroimidazo[1,2-a]pyridin-6-yl)piperazin-1-yl)-N-methylacetamide]
[1]
  IC50: 0.01 to 100 nM
[2]
  IC50: 100 to 500 nM

## CCc1nc2ccc(C3CCN(S(C)(=O)=O)CC3)cn2c1N(C)c1nc(-c2ccc(F)cc2)cs1 [Compound 80, N-(2-ethyl-6-(1-(methylsulfonyl)piperidin-4-yl)imidazo[1,2-a]pyridin-3-yl)-4-(4-fluorophenyl)-N-methylthiazol-2-amine]
[1]
  IC50: 500 to 1000 nM
[3]
  IC50: 0.01 to 100 nM
[4]
  IC50: 500 to 1000 nM
[2]
  IC50: > 1000 nM

## CCc1nc2ccc(C3CCN(CC(=O)N4CC(O)C4)CC3)cn2c1N(C)c1nc(-c2ccc(F)cc2)cs1 [Compound 110, 2-(4-(2-ethyl-3-((4-(4-fluorophenyl)thiazol-2-yl)(methyl)amino)imidazo[1,2-a]pyridin-6-yl)piperidin-1-yl)-(3-hydroxyazetidin-1-yl)ethanone]
[1]
  IC50: > 1000 nM
[3]
  IC50: 0.01 to 100 nM
[4]
  IC50: 100 to 500 nM
[2]
  IC50: > 1000 nM

## CCc1nc2ccc(N3CCN(CC(=O)N4CC(O)C4)CC3)cn2c1N(C)c1nc(-c2ccc(F)cc2C#N)cs1 [Compound 166, 2-(2-((2-ethyl-6-(4-(2-(3-hydroxyazetidin-1-yl)-2-oxoethyl)piperazin-1-yl)imidazo[1,2-a]pyridin-3-yl)(methyl)amino)thiazol-4-yl)-5-fluorobenzonitrile]
[1]
  IC50: 500 to 1000 nM
[3]
  IC50: 0.01 to 100 nM
[4]
  IC50: 0.01 to 100 nM

## CCc1nc2ccc(N3CCN(CC(=O)N4CCC4)CC3)cn2c1N(C)c1nc(-c2ccc(F)cc2C#N)cs1 [Compound 167, 2-(2-((6-(4-(2-(azetidin-1-yl)-2-oxoethyl)piperazin-1-yl)-2-ethylimidazo[1,2-a]pyridin-3-yl)(methyl)amino)thiazol-4-yl)-5-fluorobenzonitrile]
[1]
  IC50: 100 to 500 nM
[3]
  IC50: 0.01 to 100 nM
[4]
  IC50: 0.01 to 100 nM

## CCc1nc2ccc(C3CCN(CC(=O)N4CC(O)C4)CC3)cn2c1N(C)c1nc(-c2ccc(F)cc2C#N)cs1 [Compound 170, 2-(2-((2-ethyl-6-(1-(2-(3-hydroxyazetidin-1-yl)-2-oxoethyl)piperidin-4-yl)imidazo[1,2-a]pyridin-3-yl)(methyl)amino)thiazol-4-yl)-5-fluorobenzonitrile]
[1]
  IC50: 100 to 500 nM
[3]
  IC50: 0.01 to 100 nM
[4]
  IC50: 0.01 to 100 nM

## CCc1nc2ccc(C3CCN(CC(=O)N(C)C)CC3)cn2c1N(C)c1nc(-c2ccc(F)cc2C#N)cs1 [Compound 171, 2-(4-(3-((4-(2-cyano-4-fluorophenyl)thiazol-2-yl)(methyl)amino)-2-ethylimidazo[1,2-a]pyridin-6-yl)piperidin-1-yl)-N,N-dimethylacetamide]
[1]
  IC50: 100 to 500 nM
[3]
  IC50: 0.01 to 100 nM
[4]
  IC50: 0.01 to 100 nM

## CCc1nc2ccc(C3CCN(CC(=O)N4CC(O)C4)CC3)cn2c1N(C)c1nc(-c2ccc(F)cc2C#N)ns1 [Compound 173, 2-(5-((2-ethyl-6-(1-(2-(3-hydroxyazetidin-1-yl)-2-oxoethyl)piperidin-4-yl)imidazo[1,2-a]pyridin-3-yl)(methyl)amino)-1,2,4-thiadiazol-3-yl)-5-fluorobenzonitrile]
[1]
  IC50: 100 to 500 nM
[3]
  IC50: 0.01 to 100 nM
[4]
  IC50: 0.01 to 100 nM

## CN(C)C(=O)CN1CCC(c2ccc3nc(CCC#N)c(N(C)c4nc(-c5ccc(F)cc5)cs4)n3c2)CC1 [Compound 174, 2-(4-(2-(2-cyanoethyl)-3-((4-(4-fluorophenyl)thiazol-2-yl)(methyl)amino)imidazo[1,2-a]pyridin-6-yl)piperidin-1-yl)-N,N-dimethylacetamide]
[1]
  IC50: 0.01 to 100 nM
[3]
  IC50: 0.01 to 100 nM
[4]
  IC50: 0.01 to 100 nM

## CCc1nc2ccc(N3CCN(CCO)CC3)cn2c1N(C)c1nc(-c2ccc(F)cc2)cs1 [Compound 180, 2-(4-(2-ethyl-3-((4-(4-fluorophenyl)thiazol-2-yl)(methyl)amino)imidazo [1,2-a]pyridin-6-yl)piperazin-1-yl)ethanol]
[1]
  IC50: > 1000 nM
[3]
  IC50: 0.01 to 100 nM
[4]
  IC50: > 1000 nM

## CCc1nc2ccc(N3CCS(=O)(=O)CC3)cn2c1N(C)c1nc(-c2ccc(F)cc2)cs1 [Compound 182, 4-(2-ethyl-3-((4-(4-fluorophenyl)thiazol-2-yl)(methyl)amino)imidazo[1,2-a]pyridin-6-yl)-thiomorpholine 1,1-dioxide]
[1]
  IC50: > 1000 nM
[3]
  IC50: 0.01 to 100 nM
[4]
  IC50: > 1000 nM

## CCc1nc2ccc(C3=CCN(S(C)(=O)=O)CC3)cn2c1N(C)c1nccc(-c2ccc(F)cc2)n1 [Compound 187, 2-ethyl-N-(4-(4-fluorophenyl)pyrimidin-2-yl)-N-methyl-6-(1-(methylsulfonyl)-1,2,3,6-tetrahydropyridin-4-yl)imidazo[1,2-a]pyridin-3-amine]
[1]
  IC50: 100 to 500 nM
[3]
  IC50: 0.01 to 100 nM
[4]
  IC50: > 1000 nM

## CCc1nc2ccc(N3CCN(S(C)(=O)=O)CC3)cn2c1N(C)c1nc(-c2ccc(Cl)cc2)ns1 [Compound 188, 3-(4-chlorophenyl)-N-(2-ethyl-6-(4-(methylsulfonyl)piperazin-1-yl)imidazo[1,2-a]pyridin-3-yl)-N-methyl-1,2,4-thiadiazol-5-amine]
[1]
  IC50: > 1000 nM
[3]
  IC50: 0.01 to 100 nM
[4]
  IC50: > 1000 nM

## CCc1nc2ccc(N3CCN(Cc4cnc[nH]4)CC3)cn2c1N(C)c1nc(-c2ccc(F)cc2)cs1 [Compound 192, N-(6-(4-((1H-imidazol-5-yl)methyl)piperazin-1-yl)-2-ethylimidazo[1,2-a]pyridin-3-yl)-4-(4-fluorophenyl)-N-methylthiazol-2-amine]
[1]
  IC50: > 1000 nM
[3]
  IC50: 0.01 to 100 nM
[4]
  IC50: 500 to 1000 nM

## CCc1nc2ccc(N3CCN(C(=O)[C@H](C)O)CC3)cn2c1N(C)c1nc(-c2ccc(F)cc2)cs1 [Compound 203, (S)-1-(4-(2-ethyl-3-((4-(4-fluorophenyl)thiazol-2-yl)(methyl)amino)imidazo[1,2-a]pyridin-6-yl)piperazin-1-yl)-2-hydroxypropan-1-one]
[1]
  IC50: > 1000 nM
[3]
  IC50: 0.01 to 100 nM
[4]
  IC50: > 1000 nM

## CCc1nc2ccc(N3CCOC3=O)cn2c1N(C)c1nc(-c2ccc(Cl)cc2)cs1 [Compound 206, 3-(3-((4-(4-chlorophenyl)thiazol-2-yl)(methyl)amino)-2-ethylimidazo[1,2-a]pyridin-6-yl)oxazolidin-2-one]
[1]
  IC50: > 1000 nM
[3]
  IC50: 0.01 to 100 nM
[4]
  IC50: > 1000 nM

## CCc1nc2ccc(N3CCN(CCO)CC3)cn2c1N(C)c1nc(-c2ccc(Cl)cc2)cs1 [Compound 212, 2-(4-(3-((4-(4-chlorophenyl)thiazol-2-yl)(methyl)amino)-2-ethylimidazo[1,2-a]pyridin-6-yl)piperazin-1-yl)ethanol]
[1]
  IC50: > 1000 nM
[3]
  IC50: 0.01 to 100 nM
[4]
  IC50: > 1000 nM

## CCc1nc2ccc(N3CCS(=O)(=O)CC3)cn2c1N(C)c1nc(-c2ccc(Cl)cc2)cs1 [Compound 213, 4-(2-ethyl-3-((4-(4-chlorophenyl)thiazol-2-yl)(methyl)amino)imidazo[1,2-a]pyridin-6-yl)-thiomorpholin-1,1-dioxide]
[1]
  IC50: > 1000 nM
[3]
  IC50: 0.01 to 100 nM
[4]
  IC50: > 1000 nM

## CCc1nc2ccc(N3CCN(Cc4ncc[nH]4)CC3)cn2c1N(C)c1nc(-c2ccc(F)cc2)cs1 [Compound 226, N-(6-(4-((1H-imidazol-2-yl)methyl)piperazin-1-yl)-2-ethylimidazo[1,2-a]pyridin-3-yl)-4-(4-fluorophenyl)-N-methylthiazol-2-amine]
[1]
  IC50: > 1000 nM
[3]
  IC50: 0.01 to 100 nM
[4]
  IC50: > 1000 nM
